Experimental data as given in US20220054493A1, “INHIBITORS OF NGAL PROTEIN” (INSERM (INSTITUT NATIONAL DE LA SANTÉ ET DE LA RECHERCHE …, priority 2019, published 2022).
Each block holds one molecule with its values, some of them ahead of it.

Assays:
[1] = tested on: human plasma protein; test: Binding to human plasma protein; type: in vitro ADME
Method: (§1) Two specific toxicity assays have been performed to assess hepatoxicity and cardiotoxicity. Hepatotoxicity was evaluated in isolated hepatocytes from swiss mice and determined by the MTT colorimetric assay. Cardiotoxicity was evaluated using the commercially available Predictor hERG fluorescence polarization kit (Thermo Fisher Scientific). Several ADME assays have been carried out on the compounds generated throughout the project. The following experiments were undertaken: Stability in human microsomes, binding to human plasma protein, and CYP3A4 inhibition assay (Vivid CYP3A4 assay, Thermo Fisher Scientific). Physico-chemical properties were also assessed such as aqueous solubility and chemical stability.

[2] = Binding to human plasma protein; type: in vitro ADME; conditions: human, human plasma protein; read-out: hPPB (converted)
Method: as §1

[3] = Chemical stability; type: physicochemical
Method: as §1

[4] = tested on: isolated hepatocytes from swiss mice; test: Hepatotoxicity, MTT colorimetric assay; type: cell-based
Method: as §1

[5] = tested on: human microsomes; test: Stability in human microsomes; type: in vitro ADME
Method: as §1

[6] = tested on: CaCo2 cell line; test: Bi-CaCo2 permeability assay; type: in vitro ADME, human
Method: (§2) The Caco-2 Permeability assay uses an established method for predicting the in vivo absorption of drugs across the gut wall. The transport rate across the CaCo2 cell line is measured. This cell line has a human colon carcinoma origin and resembles to the intestinal epithelia (a polarised monolayer with microvilli and intercellular tight junctions).
(§3) Bidirectional transport (apical to basolateral (A-B) and basolateral to apical (B-A)) across the cell monolayer were determined allowing to calculate the efflux ratio (an indicator as to whether a compound undergoes active efflux).

[7] = Bi-CaCo2 permeability assay; type: in vitro ADME, human; conditions: human, Caco-2; efflux ratio
Method: as §2, §3

[8] = molecular target: T1, NGAL (Homo sapiens, UniProt P80188); test: NGAL-induced profibrotic marker synthesis in human cardiac fibroblasts (western blot); type: cell-based; conditions: FIGS. 1 and 2 panel C
T1 construct: purchased R&D Systems
Method: (§4) Cell Culture Human cardiac fibroblasts (primary culture) were obtained from Promocell and maintained in medium (Fibroblast Media 3). Cells were cultured according to the manufacturer's instructions and used between passages 5 and 7. Cells were stimulated with aldosterone (10^-8 M, Sigma) or recombinant hNGAL (500 ng/mL, R&D Systems) for 24 h for protein analysis. Mouse kidney fibroblasts (MKF), were isolated from Wild Type (WT) mice. Briefly, mice 7 to 8 weeks were sacrificed by cervical dislocation and kidneys were cleaned and rinsed in cold DPBS (Dulbecco's Phosphate-Buffered Saline). The renal cortex was minced and incubated in Dulbecco's modified eagle medium/Nutrient mixture F-12 (DMEM/F12, Sigma) containing 1 mg/mL collagenase A (Roche) during 25 minutes at 37° C. […]
(§5) Total protein aliquots of 20 μg were prepared from cardiac homogenates and electrophoresed on SDS polyacrylamide gels and transferred to Hybond-c Extra nitrocellulose membranes (Amersham Biosciences). […] After densitometric analyses, optical density values were expressed as arbitrary units. Results are expressed as an n-fold increase over the values of the control group in densitometric arbitrary units.
(§6) The inhibitory activity of the compounds was evaluated on the NGAL-induced IL6 secretion (NGAL 10 ng/ml) in human cardiac fibroblasts. […]

[9] = Aqueous solubility; type: physicochemical
Method: as §1

[10] = tested on: aldosterone-induced profibrotic marker synthesis; test: Aldosterone-induced profibrotic marker synthesis in human cardiac fibroblasts; type: cell-based; conditions: FIGS. 1 and 2 panel D
Method: as §4, with “Saline).” for “Saline). The renal cortex was minced and incubated in Dulbecco's modified eagle medium/Nutrient mixture F-12 (DMEM/F12, Sigma) containing 1 mg/mL collagenase A (Roche) during 25 minutes at 37° C.”
as §5
(§7) NGAL, IL6 and collagen type I concentrations were measured in cardiac tissue and cell supernatants, respectively, by ELISA according to the manufacturer's instructions (R&D Systems).
as §6

[11] = molecular target: T1, NGAL; test: NGAL-induced IL6 secretion in human cardiac fibroblasts (ELISA); type: cell-based; conditions: for Activity: NGAL-induced IL6 secretion (NGAL 10 ng/ml), Control = 1.00 ± 0.03
Method: (§8) Cell Culture Human cardiac fibroblasts (primary culture) were obtained from Promocell and maintained in medium (Fibroblast Media 3). Cells were cultured according to the manufacturer's instructions and used between passages 5 and 7. Cells were stimulated with aldosterone (10^-8 M, Sigma) or recombinant hNGAL (500 ng/mL, R&D Systems) for 24 h for protein analysis. Mouse kidney fibroblasts (MKF), were isolated from Wild Type (WT) mice. Briefly, mice 7 to 8 weeks were sacrificed by cervical dislocation and kidneys were cleaned and rinsed in cold DPBS (Dulbecco's Phosphate-Buffered Saline). The renal cortex was minced and incubated in Dulbecco's modified eagle medium/Nutrient mixture F-12 (DMEM/F12, Sigma) containing 1 mg/mL collagenase A (Roche) during 25 minutes at 37° C. The digestion was inactivated by adding culture medium (DMEM/F12+10% FBS) then the cell suspension was passed through a 100-μm cell strainer. After centrifugation, the pellet (containing MKF) was diluted with culture medium then plated in 75 cm^2 culture flask. After 24 hours MKF were washed with DPBS before replacement of fresh culture medium. Thereafter, culture medium was changed every 48 hours. Once 70-80% confluent, MKF were trypsinized and plated in 12 or 6-well plates. For experimental use, MKF were starved with culture medium containing only 3% FBS. MKF were treated with mNGAL (500 ng/mL, R&D Systems) for 24 h for gene expression analysis.
as §7
The inhibitory activity of the compounds was evaluated on the NGAL-induced IL6 secretion (NGAL 10 ng/ml) in human cardiac fibroblasts.
Inhibitory activities of 23 second generation compounds derived from GPZ614741 and GPZ058225 were evaluated on the NGAL-induced IL6 secretion (NGAL 10 ng/ml) in human cardiac fibroblasts.

[12] = molecular target: T2, hERG channel (Homo sapiens, UniProt Q12809); test: Cardiotoxicity, Predictor hERG fluorescence polarization kit; type: binding
T2 construct: purchased Thermo Fisher Scientific
Method: as §1

[13] = molecular target: T1, NGAL; test: NGAL-induced Col 1 secretion in human cardiac fibroblasts (ELISA); type: cell-based; conditions: FIGS. 1 and 2 panel B
Method: as §4, with “C. The digestion was inactivated by adding culture medium (DMEM/F12+10% FBS) then the cell suspension was passed through a 100-μm cell strainer. After centrifugation, the pellet (containing MKF) was diluted with culture medium then plated in 75 cm^2 culture flask.” for “C.”
as §7, §6

[14] = molecular target: T3, CYP3A4 (Homo sapiens, UniProt P08684); test: CYP3A4 inhibition assay (Vivid CYP3A4 assay); type: in vitro ADME
T3 construct: purchased Thermo Fisher Scientific
Method: as §1

[15] = molecular target: T1, NGAL; test: NGAL-induced proliferation of human cardiac fibroblast cells (MTT); type: cell-based; conditions: NGAL 10 ng/ml; FIG. 3
Method: as §8
Cell proliferation was assessed using the MTT Proliferation Assay (Sigma).
Results are shown on FIG. 3.

T1 sequence (P80188 21-198): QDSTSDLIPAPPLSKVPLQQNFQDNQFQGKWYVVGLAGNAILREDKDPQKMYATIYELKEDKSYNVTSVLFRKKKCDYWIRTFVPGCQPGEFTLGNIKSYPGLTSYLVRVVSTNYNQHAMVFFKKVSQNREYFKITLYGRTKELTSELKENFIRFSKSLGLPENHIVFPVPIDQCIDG
T3 sequence (P08684 whole entry): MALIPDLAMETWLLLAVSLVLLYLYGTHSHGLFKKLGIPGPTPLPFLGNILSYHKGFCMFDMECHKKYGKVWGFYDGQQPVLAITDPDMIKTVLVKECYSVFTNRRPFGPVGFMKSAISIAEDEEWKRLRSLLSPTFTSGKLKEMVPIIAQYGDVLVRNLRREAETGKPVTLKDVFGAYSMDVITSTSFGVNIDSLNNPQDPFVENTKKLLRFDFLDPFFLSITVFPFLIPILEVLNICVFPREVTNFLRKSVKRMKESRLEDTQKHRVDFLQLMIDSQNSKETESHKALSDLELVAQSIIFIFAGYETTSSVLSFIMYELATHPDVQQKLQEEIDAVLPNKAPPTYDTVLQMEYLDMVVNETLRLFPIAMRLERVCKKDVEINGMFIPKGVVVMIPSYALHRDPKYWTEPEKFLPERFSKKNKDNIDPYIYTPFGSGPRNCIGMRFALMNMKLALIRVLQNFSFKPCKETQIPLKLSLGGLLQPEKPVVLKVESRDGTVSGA
T2 sequence (Q12809 whole entry): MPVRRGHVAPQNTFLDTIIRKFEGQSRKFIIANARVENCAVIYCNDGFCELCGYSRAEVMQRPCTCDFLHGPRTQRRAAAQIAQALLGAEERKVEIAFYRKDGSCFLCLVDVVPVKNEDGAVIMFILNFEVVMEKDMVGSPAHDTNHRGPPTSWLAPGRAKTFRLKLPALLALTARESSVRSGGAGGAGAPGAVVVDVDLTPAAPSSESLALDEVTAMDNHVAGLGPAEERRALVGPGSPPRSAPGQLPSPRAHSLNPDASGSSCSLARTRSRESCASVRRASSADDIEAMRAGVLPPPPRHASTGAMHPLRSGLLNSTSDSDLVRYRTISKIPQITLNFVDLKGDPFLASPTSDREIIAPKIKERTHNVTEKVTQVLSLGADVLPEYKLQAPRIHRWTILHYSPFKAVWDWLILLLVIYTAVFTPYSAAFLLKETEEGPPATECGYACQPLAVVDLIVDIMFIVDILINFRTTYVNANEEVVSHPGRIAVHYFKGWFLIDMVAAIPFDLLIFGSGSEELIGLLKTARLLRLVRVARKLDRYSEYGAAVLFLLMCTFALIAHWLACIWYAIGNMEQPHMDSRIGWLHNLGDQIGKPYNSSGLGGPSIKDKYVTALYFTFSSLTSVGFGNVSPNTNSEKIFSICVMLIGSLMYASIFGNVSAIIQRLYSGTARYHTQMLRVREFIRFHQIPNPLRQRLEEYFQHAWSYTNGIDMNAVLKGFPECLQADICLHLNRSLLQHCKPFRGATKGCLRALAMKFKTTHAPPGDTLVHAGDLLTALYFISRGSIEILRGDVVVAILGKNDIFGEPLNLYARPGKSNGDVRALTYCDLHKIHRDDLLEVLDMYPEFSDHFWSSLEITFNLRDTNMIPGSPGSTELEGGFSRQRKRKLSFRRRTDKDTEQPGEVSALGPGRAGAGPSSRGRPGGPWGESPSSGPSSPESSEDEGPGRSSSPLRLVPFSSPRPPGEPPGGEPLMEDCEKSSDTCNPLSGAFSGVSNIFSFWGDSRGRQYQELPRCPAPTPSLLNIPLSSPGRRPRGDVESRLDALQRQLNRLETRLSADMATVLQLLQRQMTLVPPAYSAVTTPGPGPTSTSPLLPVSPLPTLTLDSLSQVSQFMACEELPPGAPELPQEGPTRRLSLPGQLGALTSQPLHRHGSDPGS

SMILES: CCS(=O)(=O)c1ccc2oc(SCc3cn4c(C)cc(C)nc4n3)nc2c1 [GPZ058225]
PPB (binding to plasma proteins) [1]: within acceptance range
fraction unbound [2]: 0.109
Chemical Stability [3]: 92.2%
stability to acidic pH / digestive content [3]: very stable
hepatotoxicity (toxicity for hepatocytes) ([4]; MTT up to 0.1 mM): > 0.1 mM
Hepatotoxicity ([4]; cell wrapped over two lines: No tox up / 100 uM): No tox up
microsomes degradation, left after 2 h ([5]; after 2 h): very stable
Micro Stability ([5]; human microsomes): 100%
permeability through the intestinal epithelia (in words) ([6]; compared with reference compound propranolol): quite high
efflux ratio [7]: 2.11
NGAL-induced profibrotic marker (col1, col III, fibronectin, Gal3, OPN) synthesis [8]: inhibited
Aquous solubility [9]: 63.46%
solubility in aqueous buffers (solubility test) [9]: 63%
aldosterone-induced profibrotic marker (Col1, CT-1, or IL6) synthesis [10]: inhibited
NGAL-induced IL6 secretion ([11]; NGAL 10 ng/ml, FIGS. 1 and 2 panel A): inhibited
cardiotoxicity (hERG predictor assay) [12]: did not block hERG channel
Cardiotoxicity % (100 = no toxicity) ([12]; 100 = no toxicity): 101.73 ± 4.1%
Col 1 secretion (NGAL-induced) [13]: inhibited
inhibited the enzyme activity (CYP3A4) in a competition assay [14]: 32%
Activity ([14]; human, recombinant CYP3A4 (Vivid CYP3A4 assay kit), 100 = no inhibition, read-out: CyP 3A4 Inhibition % (100 = no inhibition)): 68.1 ± 1.52%

SMILES: Clc1c(SCc2nc3ccccc3s2)nc2ncccn12 [GPZ564849]
Activity [11]: 0.85 ± 0.05

SMILES: O=C(Nc1nc2cc(F)c(F)cc2s1)c1cn2cccnc2n1 [GPZ278618]
Activity [11]: 0.86 ± 0.02

SMILES: O=S(=O)(NCc1ccccc1-n1cccn1)c1ccccc1 [GPZ595600]
Activity [11]: 0.92 ± 0.04

SMILES: CC(=O)c1cccc(S(=O)(=O)NCc2ccccc2Cn2cccn2)c1 [GPZ505884]
Activity [11]: 0.83 ± 0.02

SMILES: CC(=O)c1ccc(S(=O)(=O)Nc2ccccc2-n2cccn2)cc1 [GPZ478519]
Activity [11]: 0.69 ± 0.02

SMILES: CC(C)NC[C@H](O)COc1cccc2ccccc12 (racemic) [propanolol, reference compound]
Ratio ([6]; efflux ratio): 1.56

The remaining lines, values ahead:

NGAL-induced proliferation of human cardiac fibroblast cells [15]: Inhibitory effects
SMILES: CC(=O)c1ccc(S(=O)(=O)NC(=O)NC2CCCCC2)cc1 [GPZ706277, Acetohexamide]

NGAL-induced proliferation of human cardiac fibroblast cells [15]: Inhibitory effects
SMILES: CCN(CC)CCn1c(-c2ccccc2)noc1=N [GPZ646083, Imolamine]

Activity [11]: 0.93 ± 0.02
SMILES: CCN1CCN(Cc2ccccc2CNS(=O)(=O)c2cccc(C(C)=O)c2)CC1 [GPZ913629]

Activity [11]: 0.88 ± 0.04
SMILES: N#Cc1cccc(S(=O)(=O)NCc2cccc(-n3cccn3)c2)c1 [GPZ778195]

Activity [11]: 0.64 ± 0.02
SMILES: CC(=O)c1cccc(S(=O)(=O)NCc2ccccc2-c2ccc(CN(C)C)cc2)c1 [GPZ642292]

NGAL-induced proliferation of human cardiac fibroblast cells [15]: Inhibitory effects
SMILES: Nc1ccc(S(=O)(=O)Nc2ccnn2-c2ccccc2)cc1 [GPZ624624, Sulfaphenazole]

Activity [11]: 0.93 ± 0.03
SMILES: CC(=O)c1cccc(S(=O)(=O)NCc2ccccc2-c2ccsc2)c1 [GPZ863205]

Activity [11]: 0.94 ± 0.03
SMILES: Cc1cc(C)n2cc(CSc3nc4ccccc4[nH]3)nc2n1 [GPZ743042]
